This test concerns Normal human coronary artery smooth muscle cells (HCASMC). Briefly: Measurement of responsiveness to CGRP (intracellular cAMP EIA after 0.5 nM CGRP stimulation). It is filed as cell-based. To be noted: lignan at predetermined concentrations during 60 min PDI infiltration and 15 min 0.5 nM CGRP stimulation, control = 0.5 nM CGRP only (100% = 1189.3 fmol/well), Dunnett's test, N = 3, Fig. 1. As to the method: Normal human coronary artery smooth muscle cells (HCASMC; Kurabo Industries, Ltd., cell lot #01272) were cultured in a growth medium (product obtained by adding 25 ml of FBS, 0.5 ml of hEGF, 0.5 ml of hFGF-B, 0.5 ml of insulin and 0.5 ml of an antibacterial agent to 500 ml of basal medium HuMedia-SB2; Kurabo Industries, Ltd). 0.025% Trypsin/0.01% EDTA was used for the passage. […]
The cells were washed twice with a basal medium (HuMedia-SB2; Kurabo Industries, Ltd.) containing phosphodiesterase inhibitors (PDI), IBMX (3-isobutyl-1-methylxanthine, 500 µM, Sigma-Aldrich Co.), Ro-20-1724 (100 µM; Wako Pure Chemical Industries, Ltd.), and a lignan compound shown below at a predetermined concentration. […] Termination of the reaction was carried out by adding a lysis buffer attached to a cAMP analysis EIA kit (cAMP EIA (non-acetylation); GE Healthcare Biosciences Corp.) to the cells, and the intracellular cAMP concentration ([cAMP]i) was measured according to the method described in the manual. […]
HCASMC (Kurabo Industries, Ltd., cell lot #01272) was prepared under the same conditions as those used in Example 1. […] Thereafter, the cellular responsiveness to CGRP was measured by the same method as that used in Example 1.

Each structure is given as a SMILES string.

Regarding `COc1cc([C@@H]2c3cc4c(cc3C[C@H]3COC(=O)[C@@H]32)OCO4)cc(OC)c1OC` [TD-2], the “cellular responsiveness to CGRP (Improve Index, percentage of [cAMP]i)” value is “significantly promoted the cellular responsiveness to CGRP in a concentration-dependent manner”. The result for `COc1cc([C@@H]2c3cc4c(c(OC)c3C[C@H]3COC(=O)[C@@H]32)OCO4)cc(OC)c1OC` [TD-1] reads “significantly promoted the cellular responsiveness to CGRP in a concentration-dependent manner”.

Source of the values: patent publication EP2842558A1, “CGRP RESP[…]” (Kao Corporation, priority 2012, dated 2013).
